Patent US20250313563A1, “GLYCOGEN SYNTHASE KINASE 3 INHIBITORS AND USES THEREOF” (The Broad Institute, Inc., priority 2022, published 2025)
Like-named read-outs stand apart in the source and are kept apart here.

Tests used:
[1] = biological target: GSK3α (GST-full length GSK3α) (Homo sapiens (Human), UniProt P49840); experiment: GSK3α TR-FRET kinase assay; assay type: biochemical
Method in brief: (§1)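 IC50s came from the normalized 665/615 TR-FRET ratio after Tb-anti-pSer641 antibody and streptavidin-d2 detection of phosphorylated biotin-glycogen synthase peptide (200 nM). ATP was 4 μM for GSK3α, 2 μM for GSK3b, or 1 mM; 1 nM enzyme, 100 min, ambient, pH 7.5, after 30-min compound preincubation.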

[2] = biological target: GSK3b (GST-full length GSK3b) (Homo sapiens (Human), UniProt P49841); experiment: GSK3b TR-FRET kinase assay; assay type: biochemical
Method in brief: as §1

[3] = 1 nM GSK3α, 4 μM ATP, 30 minute preincubation, Table 16, read-out: GSK3-A TR-FRET BIOCHEMICAL (TR-FRET)
[4] = 1 nM GSK3b, 2 μM ATP, 30 minute preincubation, Table 16, read-out: GSK3-B TR-FRET BIOCHEMICAL (TR-FRET)
[5] = 1 nM GSK3α, 4 μM ATP, 30 minute preincubation, Table 16, read-out: GSK3-A TR-FRET BIOCHEMICAL (TR-FRET), IC50
[6] = 1 nM GSK3b, 2 μM ATP, 30 minute preincubation, Table 16, read-out: GSK3-B TR-FRET BIOCHEMICAL (TR-FRET), IC50
[7] = read-out: GSK3-A (TR-FRET 1 mM ATP), GMean, IC50, 1 mM ATP, geometric mean
[8] = read-out: GSK3-B (TR-FRET 1 mM ATP), GMean, IC50, 1 mM ATP, geometric mean

Chain of GSK3b (GST-full length GSK3b) (P49841 whole entry): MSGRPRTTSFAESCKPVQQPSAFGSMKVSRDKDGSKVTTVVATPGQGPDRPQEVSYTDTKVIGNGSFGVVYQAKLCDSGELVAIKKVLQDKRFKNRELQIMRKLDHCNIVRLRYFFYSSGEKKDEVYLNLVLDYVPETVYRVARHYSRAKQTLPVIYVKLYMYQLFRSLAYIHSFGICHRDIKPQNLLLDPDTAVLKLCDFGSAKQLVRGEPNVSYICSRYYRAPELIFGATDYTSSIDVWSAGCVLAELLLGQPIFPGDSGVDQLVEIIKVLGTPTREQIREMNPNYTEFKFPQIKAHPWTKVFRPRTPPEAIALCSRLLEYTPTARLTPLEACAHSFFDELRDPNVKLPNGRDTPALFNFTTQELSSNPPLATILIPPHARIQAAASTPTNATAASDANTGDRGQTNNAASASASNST
Chain of GSK3α (GST-full length GSK3α) (P49840 whole entry): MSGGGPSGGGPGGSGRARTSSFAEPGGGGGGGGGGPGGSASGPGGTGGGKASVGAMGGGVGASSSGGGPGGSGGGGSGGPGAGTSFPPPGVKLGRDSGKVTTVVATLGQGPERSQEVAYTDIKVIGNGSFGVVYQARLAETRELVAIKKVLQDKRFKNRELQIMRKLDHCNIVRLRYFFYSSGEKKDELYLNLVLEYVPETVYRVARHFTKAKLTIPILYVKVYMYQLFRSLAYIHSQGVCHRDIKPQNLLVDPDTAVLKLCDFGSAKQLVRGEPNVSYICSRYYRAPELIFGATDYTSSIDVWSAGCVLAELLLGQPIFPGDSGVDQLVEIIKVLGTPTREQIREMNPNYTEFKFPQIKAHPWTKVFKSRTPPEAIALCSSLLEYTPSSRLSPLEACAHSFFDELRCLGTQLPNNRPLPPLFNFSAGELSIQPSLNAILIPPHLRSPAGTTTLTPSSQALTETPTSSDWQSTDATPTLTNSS

SMILES	IC50 [1, 3] [nM]	IC50 [2, 4] [nM]	IC50 [1, 5] [nM]	IC50 [2, 6] [nM]	IC50 [1, 7] [nM]	IC50 [2, 8] [nM]
CCC1(c2cccc(C(F)(F)C(F)(F)F)c2)C2=C(CC(C)(C)CC2=O)Nc2n[nH]cc21 (centres unmarked) [Compound 949268]	1000 to 5000	> 5000				
Cc1cnccc1[C@H]1CC[C@@]2(CC1)C1=C(CC(C)(C)CC1=O)Nc1n[nH]cc12 [Compound 949318]	100 to 1000	100 to 1000				
Cc1cnccc1[C@H]1CC[C@]2(CC1)C1=C(CC(C)(C)CC1=O)Nc1n[nH]cc12 [Compound 949319]	≤ 100	≤ 100				
CC1(C)CC(=O)C2=C(C1)Nc1n[nH]cc1[C@]21CC[C@@H](c2ccncc2)CC1 [Compound 949320]	100 to 1000	1000 to 5000				
CC1(C)CC(=O)C2=C(C1)Nc1n[nH]cc1[C@]21CC[C@H](c2ccncc2)CC1 [Compound 949321]	≤ 100	≤ 100				
Cn1cc([C@H]2CC[C@@]3(CC2)C2=C(CC(C)(C)CC2=O)Nc2n[nH]cc23)cn1 [Compound 949322]	100 to 1000	1000 to 5000				
CC[C@]1(c2cccc(-c3cn(C)nc3C)c2)C2=C(CC(C)(C)NC2=O)Nc2n[nH]c(Cl)c21 [Compound 949329]			1000 to 5000	> 5000		
CC[C@@]1(c2cccc(-c3cc(C)nnc3C)c2)C2=C(CC(C)(C)NC2=O)Nc2n[nH]cc21 [Compound 949334]			1000 to 5000	> 5000		
CC[C@@]1(c2cccc(Oc3ncccn3)c2)C2=C(CC(C)(C)NC2=O)Nc2n[nH]cc21 [Compound 949335]			> 5000	> 5000		
CC[C@@]1(c2cccc(-c3ccnc(C(F)F)c3)c2)C2=C(CC(C)(C)NC2=O)Nc2n[nH]cc21 [Compound 949388]			1000 to 5000	> 5000		
CCC1(c2cccc(-c3cnn4cccnc34)c2)C2=C(CC(C)(C)NC2=O)Nc2n[nH]cc21 (centres unmarked) [Compound 949389]			1000 to 5000	> 5000		
CCc1cccc(C2(CC)C3=C(CC(C)(C)CC3=O)Nc3n[nH]cc32)c1 (centres unmarked) [Compound 949391]	1000 to 5000	> 5000				

Further lines, results first:

IC50 [1, 3] [nM]	IC50 [2, 4] [nM]	IC50 [1, 5] [nM]	IC50 [2, 6] [nM]	IC50 [1, 7] [nM]	IC50 [2, 8] [nM]	SMILES
		≤ 100	100 to 1000			CCC1(c2cccc(C(F)(F)F)c2)C2=C(CCN(c3cnn(C)c3)C2=O)Nc2n[nH]cc21 (centres unmarked) [Compound 949270]
		100 to 1000	> 5000			CC[C@]1(c2cccc(C(F)(F)F)c2)C2=C(CCN(c3cnn(C)c3)C2=O)Nc2n[nH]cc21 [Compound 949271]
		≤ 100	100 to 1000	100 to 1000	> 5000	CCC1(c2cccc(C(F)(F)F)c2)C2=C(CCN(c3ccccn3)C2=O)Nc2n[nH]cc21 (centres unmarked) [Compound 949310]
		1000 to 5000	> 5000			Cn1cc([C@H]2CC[C@]3(CC2)C2=C(CC(C)(C)CC2=O)Nc2n[nH]cc23)cn1 [Compound 949323]
		≤ 100	≤ 100	100 to 1000	1000 to 5000	CCC1(c2cccc(-c3ccncc3F)c2)C2=C(CC(C)(C)NC2=O)Nc2n[nH]c(Cl)c21 (centres unmarked) [Compound 949324]
		1000 to 5000	> 5000			CC[C@]1(c2cccc(OC)c2)C2=C(CC(C)(C)NC2=O)Nc2n[nH]c(C)c21 [Compound 949328]
		≤ 100	100 to 1000			CC[C@]1(c2cccc(Oc3ncccn3)c2)C2=C(CC(C)(C)NC2=O)Nc2n[nH]cc21 [Compound 949330]
		≤ 100	≤ 100	≤ 100	100 to 1000	CCC1(c2cccc(-c3cn(C)nc3C)c2)C2=C(CC(C)(C)NC2=O)Nc2n[nH]c(Cl)c21 (centres unmarked) [Compound 949336]
		100 to 1000	1000 to 5000			CC[C@@]1(c2cccc(OC)c2)C2=C(CC(C)(C)NC2=O)Nc2n[nH]c(C)c21 [Compound 949337]
		≤ 100	100 to 1000			CCC1(c2cccc(C(F)(F)F)c2)C2=C(CC(C)N(c3cnc(OC)nc3)C2=O)Nc2n[nH]cc21 (centres unmarked) [Compound 949351]
		≤ 100	≤ 100	100 to 1000	1000 to 5000	CCC1(c2cccc(C(F)(F)F)c2)C2=C(CC(C)N(c3cnc(OC)nc3)C2=O)Nc2n[nH]cc21 (centres unmarked) [Compound 949352]
		100 to 1000	1000 to 5000			CC[C@@]1(c2cccc(C(F)(F)F)c2)C2=C(C[C@H](C)N(c3cnc(OC)nc3)C2=O)Nc2n[nH]cc21 [Compound 949354]
